Measurements as given in US20120277286A1, “COMPOSITIONS AND METHODS FOR THE TREATMENT OR PREVENTION OF MITOCHONDRIAL DISEASES” (The Government of the USA, as represented by the Secretary, …, priority 2009, published 2012).

Assays:
M17 cells = assay: Mitochondrial mass by Mitotracker Green staining; type: cell-based, human; details: control shRNA (CCCP line) or PINK1 shRNA
Protocol: To test whether PINK1 expression affects mitochondrial turnover in the presence of endogenous levels of Parkin, the control shRNA and PINK1 shRNA M17 cells (which express moderate levels of Parkin) were treated with DMSO or CCCP for 24 hours and measured their relative mitochondrial mass by Mitotracker Green (MTG) staining and flow cytometry. MTG, a sensitive measure of mitochondrial mass, stains mitochondrial lipid in a membrane potential independent manner and has been used to measure mitochondrial mass of depolarized mitochondria previously (Hristova et al., J Biol Chem. In press; Whitworth et al., Dis Model Mech 1: 168-174, 2008). […] To more directly assay mitochondrial turnover in control and PINK1 shRNA M17 cells, the cells were pulsed with MTG and loss of MTG intensity was tracked at 0, 16, and 24 hours in the presence of CCCP. Consistent with the hypothesis that endogenous PINK1 promotes the degradation of depolarized mitochondria, Mitotracker Green intensity decreased more slowly in PINK1 shRNA cells when compared with control shRNA cells, treated with CCCP (0.58±0.07 vs. 0.33±0.07 relative MTG intensity at 24 hours) (FIG. 12F).

PINK1-V5 = PINK1-V5 accumulation in cortical neurons, immunoblot; type: cell-based, rat; details: 1 μM CCCP, 6 hours
Excerpt: HeLa YFP-Parkin, E18 Rat cortical neurons, PINK1^+/+ SV40 transformed MEFs cells, PINK1^−/− SV40 transformed MEF, M17 neuroblastoma control shRNA, M17 neuroblastoma PINK1, Mfn1/2^−/− MEF, and Parl^−/− MEF cell lines have been described previously (Narendra (2008) J Cell Biol 183: 795-803). PINK1^+/+ and PINK1^−/− primary MEFs were isolated from embryos using a standard protocol (Gautier (2008) Proc Natl Acad Sci USA 105: 11364-11369). Parkin^+/+ and Parkin^−/− transformed MEFs were created by isolation of primary cells from embryos of B6.129S4-Park2^tm1Shn/J mice (Jackson Labs), using a standard protocol (Gautier (2008) Proc Natl Acad Sci USA 105: 11364-11369), followed by retroviral transduction of SV40 (Applied Biological Materials, Inc.). YFP-Parkin, YFP-Parkin mutants, mCherry-Parkin, PINK1-YFP, PINK1 KD-YFP, PINK1 Δ1-110-YFP, and Opa3-PINK1 Δ1-110-YFP are in C1 or N1 Clontech vectors. PINK1WT-V5, PINK1 KD-V5, and PINK1 Δ1-156-V5 are in pDest40 vector (Invitrogen). PINK1 patient mutations are in the pLenti-V5 vector (Invitrogen). PINK1-myc is in a pCMBTNT vector (Promega). The PARL shRNA construct targeting (5′ […] 3′) is in the pSuper-GFP vector. […]

HeLa cells = assay: Transmission electron microscopy of mitochondria and lysosomes; type: cell-based; details: 10 μM CCCP 48 hours
Protocol: HeLa cells transfected with YFP-Parkin for 18 hours were sorted for YFP using FACS. After sorting, 99.7% of cells contained a detectable YFP signal. After overnight culture, cells were treated with 10 μM CCCP for 48 h, fixed with 4% glutaraldehyde in 0.1 N sodium-cacodylate at room temperature for 1 hour, and processed for electron microscopy using a standard protocol. 22 cells expressing Parkin and 22 untransfected cells were randomly selected and imaged at 8,000× magnification by transmission electron microscope (200CX; JEOL Ltd.) and a digital camera system (XR-100; Advanced Microscopy Techniques, Corp.). The area of cytoplasm in each cell was calculated using National Institutes of Health ImageJ.

Molecule: N#CC(C#N)=NNc1cccc(Cl)c1 [CCCP, carbonyl cyanide m-chlorophenylhydrazone]
- relative MTG intensity (M17 cells; M17 cells pulsed with MTG, CCCP, at 24 hours): 0.33±0.07
- change in mitochondrial mass, CCCP vs. DMSO (M17 cells; M17 cells, 24 hours, MTG flow cytometry): −22.4±12.6%
- PINK1-V5 level (PINK1-V5): increases

B1: YFP-Parkin: YFP-tagged Parkin E3 ligase expressed from a transfected vector (protein, UniProt O60260 1-465, looked up)
E3 ubiquitin-protein ligase …: MIVFVRFNSSHGFPVEVDSDTSIFQLKEVVAKRQGVPADQLRVIFAGKELRNDWTVQNCDLDQQSIVHIVQRPWRKGQEMNATGGDDPRNAAGGCEREPQSLTRVDLSSSVLPGDSVGLAVILHTDSRKDSPPAGSPAGRSIYNSFYVYCKGPCQRVQPGKLRVQCSTCRQATLTLTQGPSCWDDVLIPNRMSGECQSPHCPGTSAEFFFKCGAHPTSDKETSVALHLIATNSRNITCITCTDVRSPVLVFQCNSRHVICLDCFHLYCVTRLNDRQFVHDPQLGYSLPCVAGCPNSLIKELHHFRILGEEQYNRYQQYGAEECVLQMGGVLCPRPGCGAGLLPEPDQRKVTCEGGNGLGCGFAFCRECKEAYHEGECSAVFEASGTTTQAYRVDERAAEQARWEAASKETIKKTTKPCPRCHVPVEKNGGCMHMKCPQPQCRLEWCWNCGCEWNRVCMGDHWFDV
modifications: YFP fusion
notes: YFP-tagged Parkin E3 ligase expressed from a transfected vector
- cells with either few or no detectable mitochondrial structures (HeLa cells; electron microscopy): 90%
- lysosomes per cell area (HeLa cells; n=22 cells): 0.38±0.23 lysosomes/μm 2 cell area
- mitochondria per area of cytoplasm (HeLa cells; n=22 cells): 0.074±0.21 mitochondria/μm 2 of cytoplasm
